In this experiment the target is T1, human Kv7.2+3 (Homo sapiens, UniProt O43525+O43526).
T1 construct: expressed in transfected cells; host or cells: HEK293
Put plainly: FLIPR-based characterization of Kv7.2+3 modulators (thallium influx, BTC-AM). The format is cell-based. To be noted: HEK293 cells over-expressing human Kv7.2+3; for EC50: Tl+ influx FLIPR, 50% of channel activity compared to retigabine control responses; for Emax: maximal response relative to the reference (retigabine) response, read-out: Efficacy. The protocol:
This experiment determines the ability of a test compound to modulate the activity of Kv7.2+3 channels heterologously expressed in human HEK293 cells. The ability is determined relative to retigabine. The activity is determined using a standard thallium (I) sensitive assay, e.g. using a fluorometric method in a Fluorescent Image Plate Reader (FLIPR) as described below in more detail.
Full concentration/response curves are generated and EC50 values are calculated based on max values. EC50 values (Effective Concentration) represent the concentration of the test substance, at which 50% of the channel activity is obtained when compared to retigabine control responses. Maximal response determined relative to the reference (retigabine) response is calculated.
Human HEK293 cells over-expressing human Kv7.2+3 are grown in culture medium (DMEM supplemented with 10% foetal bovine serum), in polystyrene culture flasks ([…]) in a humidified atmosphere of 5% CO2 in air, at 37° C. Cell confluence should be 80-90% on day of plating. Cells are rinsed with 4 ml of PBS (phosphate buffered saline) and incubated 2 min with 1 ml of Trypsin-EDTA. After addition of 25 ml of culture medium cells are re-suspended by trituration with a 25 ml pipette.
The cells are seeded at a density of ˜3×10^6 cells/ml (25 μl/well) in black-walled, clear bottom, 384-well plates pre-treated with 0.01 g/l poly-D-lysin (20 μl/well for 30 min). Plated cells were allowed to proliferate for 24 h before loading with dye.
BTC-AM (50 mg, Invitrogen) is added 25.5 μl DMSO. The BTC-AM stock solution (2 mM) is diluted to a final concentration of 2 μM in Cl^− free assay buffer (in mM: 140 Na^+-gluconate, 2.5 K^+-gluconate, 6 Ca2^+-gluconate, 1 Mg^2+ gluconate, 5 glucose, 10 HEPES, pH 7.3) containing 2 μM ouabain, 2 mM amaranth and 1 mM tartrazine.
The culture medium is aspirated from the wells, the cells are washed thrice in Cl^− free assay buffer, and 25 μl of the BTC-AM loading solution is added to each well. The cells are incubated at 37° C. for 60 min.
After the loading period, the TI^+-sensitive BTC fluorescence signal is measured over time using a FLIPR.
• Temperature: Room temp. • First addition: 12 μl test or control compound after 15 sec at a rate of 30 μl/sec and starting height of 20 μl • Second addition: 12 μl stimulus buffer (Cl^− free assay buffer supplemented with 1 mM TI2SO4, 5 mM K2SO4 as well as the quenchers amaranth (2 mM) and tartrazine (1 mM)) is added after an additional 3 minutes at a rate of 30 μl/sec and starting height of 30 μl • Reading intervals: First sequence—3 sec×5, 2 sec×24 and 5 sec×25 Second sequence—1 sec×5, 2 sec×24 and 5 sec×36 Addition plates (compound plate and stimulus plate) are placed in positions 2 and 3, respectively. Cell plates are placed in position 1 and run using the “KCNQ (two additions)” program. FLIPR will then take the appropriate measurements in accordance with the interval settings above. Fluorescence obtained after stimulation is corrected for the mean basal fluorescence (in Cl^− free assay buffer).
Full concentration/response curves are generated and EC50 values (“Effective Concentration”; the concentration at which 50% of the channel activity is obtained when compared to retigabine control responses) are calculated based on peak values. Maxi-mal response determined relative to the reference (retigabine) response is calculated.

SMILES strings stand for the structures.

Regarding `O=C(Cc1cc(F)cc(F)c1)Nc1ccc(NCc2ccc(F)cc2)nc1N1CCOCC1` [Compound 2.1, 2-(3,5-Difluoro-phenyl)-N-[6-(4-fluoro-benzylamino)-2-morpholin-4-yl-pyridin-3-yl]-acetamide], the EC50 stood at 0.13 µM and the Emax came to 100%.
For `CC(C)(Nc1ccc(NC(=O)Cc2cc(F)cc(F)c2)c(N2CCOCC2)n1)c1ccc(F)cc1` [Compound 2.2, 2-(3,5-Difluoro-phenyl)-N-{6-[1-(4-fluoro-phenyl)-1-methyl-ethylamino]-2-morpholin-4-yl-pyridin-3-yl}-acetamide], the EC50 turned out to be 5.4 µM and the Emax turned out to be 86%.
For `Cc1ccccc1C(=O)Nc1ccc(NCc2ccc(F)cc2)nc1N1CCOCC1` [Compound 2.3, N-[6-(4-Fluoro-benzylamino)-2-morpholin-4-yl-pyridin-3-yl]-2-methyl-benzamide], in that order: 10 µM and 52%.
Turning to `O=C(Cc1ccc2c(c1)OCO2)Nc1ccc(NCc2ccc(F)cc2)nc1N1CCOCC1` [Compound 2.4, 2-Benzo[1,3]dioxol-5-yl-N-[6-(4-fluoro-benzylamino)-2-morpholin-4-yl-pyridin-3-yl]-acetamide], the response was half-maximal at 0.78 µM (EC50) and the Emax is 104%.
Regarding `COc1ccc(CC(=O)Nc2ccc(NCc3ccc(F)cc3)nc2N2CCOCC2)cc1` [Compound 2.5, N-[6-(4-Fluoro-benzylamino)-2-morpholin-4-yl-pyridin-3-yl]-2-(4-methoxy-phenyl)-acetamide], the midpoint of the response, the EC50, lay at 0.84 µM and the Emax came out at 98%.
As to `COc1cccc(CC(=O)Nc2ccc(NCc3ccc(F)cc3)nc2N2CCOCC2)c1` [Compound 2.6, N-[6-(4-Fluoro-benzylamino)-2-morpholin-4-yl-pyridin-3-yl]-2-(3-methoxy-phenyl)-acetamide], the midpoint of the response, the EC50, lay at 0.33 µM and the Emax was found to be 88%.
`O=C(Cc1ccc(Cl)cc1Cl)Nc1ccc(NCc2ccc(F)cc2)nc1N1CCOCC1` [Compound 2.7]: the EC50 worked out at 4.1 µM and the Emax amounted to 47%.
Turning to `O=C(Cc1cccc(C(F)(F)F)c1)Nc1ccc(NCc2ccc(F)cc2)nc1N1CCOCC1` [Compound 2.8, N-[6-(4-Fluoro-benzylamino)-2-morpholin-4-yl-pyridin-3-yl]-2-(3-trifluoromethyl-phenyl)-acetamide], the EC50 turned out to be 0.59 µM and the Emax turned out to be 87%.
Taken in the same sequence, the figures for `O=C(Cc1ccccc1F)Nc1ccc(NCc2ccc(F)cc2)nc1N1CCOCC1` [Compound 2.9, N-[6-(4-Fluoro-benzylamino)-2-morpholin-4-yl-pyridin-3-yl]-2-(2-fluoro-phenyl)-acetamide] were 0.21 µM and 86%.
In the case of `O=C(Cc1cccc(F)c1)Nc1ccc(NCc2ccc(F)cc2)nc1N1CCOCC1` [Compound 2.10, N-[6-(4-Fluoro-benzylamino)-2-morpholin-4-yl-pyridin-3-yl]-2-(3-fluoro-phenyl)-acetamide], a half-maximal effect (EC50) was put at 0.035 µM and the Emax was 93%.
For `O=C(Cc1ccc(Cl)cc1)Nc1ccc(NCc2ccc(F)cc2)nc1N1CCOCC1` [Compound 2.11], in that order: 0.23 µM and 88%.
With `O=C(CSc1ccc(F)cc1)Nc1ccc(NCc2ccc(F)cc2)nc1N1CCOCC1` [Compound 2.12], the half-maximal effective concentration (EC50) came to 2.7 µM and the Emax is 87%.
For `O=C(COc1cccc(F)c1)Nc1ccc(NCc2ccc(F)cc2)nc1N1CCOCC1` [Compound 2.13, 2-(3-fluorophenoxy)-N-[6-[(4-fluorophenyl)-methylamino]-2-morpholino-3-pyridyl]acetamide], in that order: 6.6 µM and 86%.
Taken in the same sequence, the figures for `O=C(Cc1ccc(Cl)nc1)Nc1ccc(NCc2ccc(F)cc2)nc1N1CCOCC1` [Compound 2.14, 2-(6-chloro-3-pyridyl)-N-[6-[(4-fluorophenyl)-methylamino]-2-morpholino-3-pyridyl]acetamide] were 0.9 µM and 80%.
With `O=C(Nc1ccc(NCc2ccc(F)cc2)nc1N1CCOCC1)c1cccnc1F` [Compound 2.15, 2-fluoro-N-[6-[(4-fluorophenyl)-methylamino]-2-morpholino-3-pyridyl]-pyridine-3-carboxamide], the concentration giving a half-maximal response (EC50) came out at 11 µM and the Emax was found to be 28%.

(Values after patent US20110312962A1, “NOVEL 2-MORPHOLINO-3-AMIDO-PYRIDINE DERIVATIVES AND THEIR MEDICAL USE” (NEUROSEARCH A/S, priority 2008, published 2011).)
